No end group written: not given here.
Target: T1, human TAS1R2-I234V/TAS1R3-WT (Homo sapiens, UniProt Q7RTX0+Q8TE23, I234V)
T1 construct: expressed in transfected cells; host or cells: HEK293T-Gα16gust44
T1 sequence (Q8TE23 20-839 I234V): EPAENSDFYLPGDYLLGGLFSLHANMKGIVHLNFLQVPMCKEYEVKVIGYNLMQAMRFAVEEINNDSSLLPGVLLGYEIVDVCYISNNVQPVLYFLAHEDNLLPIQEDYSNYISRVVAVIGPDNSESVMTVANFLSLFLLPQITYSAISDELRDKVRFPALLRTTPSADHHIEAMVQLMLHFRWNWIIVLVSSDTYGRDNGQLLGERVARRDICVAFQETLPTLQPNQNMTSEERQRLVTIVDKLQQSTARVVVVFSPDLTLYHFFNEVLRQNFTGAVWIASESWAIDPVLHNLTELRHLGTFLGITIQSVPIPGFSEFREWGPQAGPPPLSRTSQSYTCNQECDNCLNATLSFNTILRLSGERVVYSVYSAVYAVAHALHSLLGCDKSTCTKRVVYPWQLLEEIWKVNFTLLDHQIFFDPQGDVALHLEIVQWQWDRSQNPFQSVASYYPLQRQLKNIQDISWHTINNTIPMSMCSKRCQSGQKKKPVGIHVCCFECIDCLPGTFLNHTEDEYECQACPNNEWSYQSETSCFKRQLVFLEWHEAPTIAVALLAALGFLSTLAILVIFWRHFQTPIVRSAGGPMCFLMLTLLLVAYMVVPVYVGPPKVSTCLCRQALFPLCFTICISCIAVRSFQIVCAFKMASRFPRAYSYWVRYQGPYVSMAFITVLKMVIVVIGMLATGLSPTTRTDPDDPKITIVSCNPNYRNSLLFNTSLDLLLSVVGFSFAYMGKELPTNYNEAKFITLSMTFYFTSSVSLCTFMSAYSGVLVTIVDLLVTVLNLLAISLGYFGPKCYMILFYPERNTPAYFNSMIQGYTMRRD
T1 sequence (Q7RTX0 21-852): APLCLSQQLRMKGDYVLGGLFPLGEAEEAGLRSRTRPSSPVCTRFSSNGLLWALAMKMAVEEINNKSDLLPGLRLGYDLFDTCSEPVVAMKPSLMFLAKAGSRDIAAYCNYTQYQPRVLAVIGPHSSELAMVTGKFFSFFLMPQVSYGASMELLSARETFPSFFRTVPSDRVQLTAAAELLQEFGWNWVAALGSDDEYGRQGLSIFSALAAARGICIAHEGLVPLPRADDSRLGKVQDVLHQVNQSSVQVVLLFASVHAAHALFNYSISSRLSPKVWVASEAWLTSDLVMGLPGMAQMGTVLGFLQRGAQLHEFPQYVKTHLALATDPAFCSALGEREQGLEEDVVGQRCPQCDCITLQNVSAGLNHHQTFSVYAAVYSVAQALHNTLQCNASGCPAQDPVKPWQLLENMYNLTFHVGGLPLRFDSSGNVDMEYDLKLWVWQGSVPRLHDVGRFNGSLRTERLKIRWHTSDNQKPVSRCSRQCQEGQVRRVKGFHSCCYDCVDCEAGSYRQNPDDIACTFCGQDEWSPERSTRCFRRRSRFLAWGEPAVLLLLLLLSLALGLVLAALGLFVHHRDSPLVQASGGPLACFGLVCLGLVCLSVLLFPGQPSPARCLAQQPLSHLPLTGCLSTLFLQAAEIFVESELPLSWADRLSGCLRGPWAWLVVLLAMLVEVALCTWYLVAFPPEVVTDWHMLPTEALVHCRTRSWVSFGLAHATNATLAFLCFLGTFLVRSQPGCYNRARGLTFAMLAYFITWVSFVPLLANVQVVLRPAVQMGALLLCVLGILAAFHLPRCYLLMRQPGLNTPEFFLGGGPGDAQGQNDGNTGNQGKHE
Experiment: Calcium mobilisation assay, TAS1R2 variant I234V with TAS1R3-WT
Format: cell-based
Conditions: for Max ΔF/F0: maximal signal amplitude
From the text: The coding sequences for TAS1R2 and TAS1R3 were commercially synthesised, and the human codon was optimised for expression in human cells. The coding sequences of human TAS1R2 and TAS1R3 were subcloned and inserted into the mammalian expression vectors pcDNA6/myc-HisA and pcDNA4/myc-HisA (Invitrogen; Thermo Fisher Scientific; Illkirch, France) between the EcoRI and NotI restriction sites, generating the plasmids pcDNA6-TAS1R2 and pcDNA4-TAS1R3, respectively. To increase protein expression in mammalian cells, an upstream start codon was used, which was a sequence called MAX, corresponding to the QBI SP163 element also described in pcDNA4-HisMax (Invitrogen; Thermo Fisher Scientific; Illkirch, France). To measure the expression level of the receptor by immunohistochemistry, we used the FLAG sequence ([…]) in the C-terminal position, which encodes the FLAG tag epitope. SNP variants of TAS1R2 and TAS1R3 were constructed based on […], respectively, using site-directed mutagenesis (Genewiz; Leipzig, Germany).
The HEK293T cells were kindly provided by Jay P. Slack (Givaudan Flavors Corporation; Cincinnati, OH, USA). HEK293T cells stably transfected with Gα16gust44 [43, 67] were seeded in poly-D-lysine-coated clear-bottom black 96-well plates (0.35 × 10^5 cells/well) in high-glucose DMEM supplemented with 2 mM GlutaMAX, 10% dialysed foetal bovine serum with penicillin/streptomycin and G418 (400 μg/mL) at 37 °C and 6.3% CO2 in a humidified atmosphere as previously reported. […] As a negative control, HEK293T cells were mock-transfected with the empty expression vector. After a further 24 h of incubation, the HEK293T cells were washed with C1 buffer (130 mM NaCl, 5 mM KCl, 10 mM HEPES pH 7.4 and 2 mM CaCl2). The 96-well plates containing the cells were then stimulated with sweet-tasting compounds. […] Different concentration ranges were tested depending on the sweet compound injected. The Ca^2+ changes were expressed as fractional changes in fluorescent light intensity: ΔF/F = (F − F0)/F0, where F was the fluorescent light intensity at each point, and F0 was the value of emitted fluorescent light prior to stimulus application. To calculate dose–response relationships, the changes in fluorescence upon stimulus application were averaged, mock-subtracted and baseline-corrected. The dose–response data obtained were adjusted using a 4-parameter logistic equation. The half-maximal effective concentrations (EC50 values) and maximal signal amplitudes were calculated using SigmaPlot software (version 15.0) (Systat Software; San Jose, CA, USA).
For in vitro calcium mobilisation assay performed on hTAS1R2-SNPs, hTAS1R3-SNPs and mTAS1R3-I60T, 6 to 7 concentrations were tested for each sweet compound, plus buffer alone. All concentration–receptor combinations were measured in duplicate, and each experiment was repeated at least 4 times (8 wells/concentration). Results were expressed for each concentration as ΔF/F mean ± SEM and represented as dose–response curves.

In the case of `C=C(C)[C@@H]1CC=C(/C=N/O)CC1` [Perillartine, perillartine], the EC50 is reported as 20.1 ± 1.1 µM, the “R1 = Variant EC50/WT EC50” value is reported as 1.1 and the “Max ΔF/F0” value is reported as 1.52 ± 0.03.

`O=S(=O)(O)NC1CCCCC1` [Cyclamate, cyclamate] gave an EC50 of 2250 ± 42 µM.

With `C=C1C[C@@]23CC[C@H]4[C@@](C)(CCC[C@@]4(C)C(=O)O[C@@H]4O[C@H](CO)[C@@H](O)[C@H](O[C@@H]5O[C@H](CO)[C@@H](O)[C@H](O)[C@H]5O)[C@H]4O[C@@H]4O[C@H](CO)[C@@H](O)[C@H](O)[C@H]4O)[C@@H]2CC[C@]1(O[C@@H]1O[C@H](CO)[C@@H](O)[C@H](O[C@@H]2O[C@H](CO)[C@@H](O)[C@H](O)[C@H]2O)[C@H]1O[C@@H]1O[C@H](CO)[C@@H](O)[C@H](O)[C@H]1O)C3` [Rebaudioside M, rebaudioside M] the EC50 was 18.4 ± 0.6 µM, the “R1 = Variant EC50/WT EC50” value was 1.1 and the “Max ΔF/F0” value was 1.14 ± 0.01.

With `OC[C@H]1O[C@H](O[C@]2(CCl)O[C@H](CCl)[C@@H](O)[C@@H]2O)[C@H](O)[C@@H](O)[C@H]1Cl` [Sucralose] the EC50 was 60 ± 7 µM, the “R1 = Variant EC50/WT EC50” value was 0.7 and the “Max ΔF/F0” value was 0.75 ± 0.03.

In the case of `CC1=CC(=O)NS(=O)(=O)O1` [Acesulfame K, acesulfame K], the EC50 is reported as 510 ± 63 µM, the “R1 = Variant EC50/WT EC50” value is reported as 0.7 and the “Max ΔF/F0” value is reported as 0.41 ± 0.02.

With “brazzein (QDKCKKVYENYPVSKCQLANQCNYDCKLDKHARSGECFYDEKRNLQCICDYCEY; ends and bridges not checked; cysteine pairing not given here; UniProt P56552 1-54, looked up) [sweet-tasting protein obtained by recombinant production using the yeast Pichia pastoris]” the “R1 = Variant EC50/WT EC50” value was 1.1 and the “Max ΔF/F0” value was 1.34 ± 0.05.

For thaumatin, the “R1 = Variant EC50/WT EC50” value was 1.8 and the “Max ΔF/F0” value was 1.25 ± 0.01.

In the case of `COC(=O)[C@H](Cc1ccccc1)NC(=O)[C@H](CC(=O)O)NCCC(C)(C)C` [Neotame], the EC50 is reported as 0.8 ± 0.08 µM, the “R1 = Variant EC50/WT EC50” value is reported as 1.0 and the “Max ΔF/F0” value is reported as 0.66 ± 0.02.

For `C[C@H](CC[C@@H](O[C@@H]1O[C@H](CO[C@@H]2O[C@H](CO)[C@@H](O)[C@H](O)[C@H]2O)[C@@H](O)[C@H](O)[C@H]1O[C@@H]1O[C@H](CO)[C@@H](O)[C@H](O)[C@H]1O)C(C)(C)O)[C@H]1CC[C@@]2(C)[C@@H]3CC=C4[C@@H](CC[C@H](O[C@@H]5O[C@H](CO[C@@H]6O[C@H](CO)[C@@H](O)[C@H](O)[C@H]6O)[C@@H](O)[C@H](O)[C@H]5O)C4(C)C)[C@]3(C)[C@H](O)C[C@]12C` [Mogroside V, mogroside V], the EC50 was 19.4 ± 1.6 µM, the “R1 = Variant EC50/WT EC50” value was 1.1 and the “Max ΔF/F0” value was 1.28 ± 0.04.

With `COc1ccc(CCC(=O)c2c(O)cc(O[C@@H]3O[C@H](CO)[C@@H](O)[C@H](O)[C@H]3O[C@@H]3O[C@@H](C)[C@H](O)[C@@H](O)[C@H]3O)cc2O)cc1O` [NHDC, neohesperidin dihydrochalcone] the EC50 was 94.7 ± 6.8 µM, the “R1 = Variant EC50/WT EC50” value was 1.2 and the “Max ΔF/F0” value was 0.80 ± 0.02.

B1: thaumatin (protein)
chain: ATFEIVNRCSYTVWAAASKGDAALDAGGRQLNSGESWTINVEPGTKGGKIWARTDCYFDDSGSGICKTGDCGGLLRCKRFGRPPTTLAEFSLNQYGKDYIDISNIKGFNVPMDFSPTTRGCRGVRCAADIVGQCPAKLKAPGGGCNDACTVFQTSEYCCTTGKCGPTEYSRFFKRLCPDAFSYVLDKPTTVTCPGSSNYRVTFCPTA
modifications: Eight disulfides
notes: sweet-tasting plant protein, E957
In the case of B1, the EC50 is reported as 13.8 ± 0.2 µM.
